Experimental data from patent US20190292174A1, “MICROBIOCIDAL OXADIAZOLE DERIVATIVES” (SYNGENTA PARTICIPATIONS AG, priority 2016, published 2019).

What was measured:
[1] = system: Puccinia recondita f. sp. tritici; assay: Puccinia recondita f. sp. tritici / wheat / leaf disc preventative (brown rust); type: in vivo; conditions: foliar, wheat leaf segments cv. Kanzler, preventative (inoculated 1 day after application), compared to untreated control
Description: Leaf disks or leaf segments of various plant species are cut from plants grown in a greenhouse. The cut leaf disks or segments are placed in multiwell plates (24-well format) onto water agar. The leaf disks are sprayed with a test solution before (preventative) or after (curative) inoculation. Compounds to be tested are prepared as DMSO solutions (max. 10 mg/ml) which are diluted to the appropriate concentration with 0.025% Tween20 just before spraying. The inoculated leaf disks or segments are incubated under defined conditions (temperature, relative humidity, light, etc.) according to the respective test system. A single evaluation of disease level is carried out 3 to 14 days after inoculation, depending on the pathosystem. Percent disease control relative to the untreated check leaf disks or segments is then calculated. Wheat leaf segments cv. Kanzler are placed on agar in multiwell plates (24-well format) and sprayed with the formulated test compound diluted in water. The leaf disks are inoculated with a spore suspension of the fungus 1 day after application. The inoculated leaf segments are incubated at 19° C. and 75% rh under a light regime of 12 h light/12 h darkness in a climate cabinet and the activity of a compound is assessed as percent disease control compared to untreated when an appropriate level of disease damage appears in untreated check leaf segments (7-9 days after application).

[2] = system: Glomerella lagenarium (Colletotrichum lagenarium); assay: Glomerella lagenarium (Colletotrichum lagenarium) liquid culture / cucumber / preventative (anthracnose); type: cell-based; conditions: Colletotrichum orbiculare, liquid culture (PDB), growth inhibition measured photometrically 3-4 days after application, compared to untreated control
Description: […] fragments or conidia suspensions of a fungus prepared either freshly from liquid cultures of the fungus or from cryogenic storage, are directly mixed into nutrient broth. DMSO solutions of the test compound (max. 10 mg/ml) are diluted with 0.025% Tween20 by a factor of 50 and 10 μl of this solution is pipetted into a microtiter plate (96-well format). The nutrient broth containing the fungal spores/mycelia fragments is then added to give an end concentration of the tested compound. The test plates are incubated in the dark at 24° C., and 96% relative humidity. The inhibition of fungal growth is determined photometrically after 2 to 7 days, depending on the pathosystem, and percent antifungal activity relative to the untreated check is calculated. Conidia of the fungus from cryogenic storage are directly mixed into nutrient broth (PDB potato dextrose broth). Alter placing a (DMSO) solution of test compound into a microtiter plate (96-well format), the nutrient broth containing the fungal spores is added. The test plates are incubated at 24° C., and the inhibition of growth is measured photometrically 3-4 days after application.

[3] = system: Puccinia recondita f. sp. tritici; assay: Puccinia recondita f. sp. tritici / wheat / leaf disc curative (brown rust); type: in vivo; conditions: foliar, 24 h, wheat leaf segments cv. Kanzler, curative (applied 1 day after inoculation), compared to untreated control, read-out: control of Puccinia recondita f. sp. tritic
Description: Leaf disks or leaf segments of various plant species are cut from plants grown in a greenhouse. The cut leaf disks or segments are placed in multiwell plates (24-well format) onto water agar. The leaf disks are sprayed with a test solution before (preventative) or after (curative) inoculation. Compounds to be tested are prepared as DMSO solutions (max. 10 mg/ml) which are diluted to the appropriate concentration with 0.025% Tween20 just before spraying. The inoculated leaf disks or segments are incubated under defined conditions (temperature, relative humidity, light, etc.) according to the respective test system. A single evaluation of disease level is carried out 3 to 14 days after inoculation, depending on the pathosystem. Percent disease control relative to the untreated check leaf disks or segments is then calculated. Wheat leaf segments cv. Kanzler are placed on agar in multiwell plates (24-well format). The leaf segments are inoculated with a spore suspension of the fungus. Plates are stored in darkness at 19° C., and 75% rh. The formulated test compound diluted in water is applied 1 day after inoculation. The leaf segments are incubated at 19° C., and 75% rh under a light regime of 12 h light/12 h darkness in a climate cabinet and the activity of a compound is assessed as percent disease control compared to untreated when an appropriate level of disease damage appears in untreated check leaf segments (6-8 days after application).

| melting point [°C] | Compound | pest or weed control at 200 ppm [1] [%] | inhibition of growth at 20 ppm [2] [%] | pest or weed control at 200 ppm [3] [%] |
| --- | --- | --- | --- | --- |
| 115.3 to 118.6 | NN(C(=O)c1ccccc1)C(=O)c1ccc(-c2noc(C(F)(F)F)n2)cc1 [Compound 1.5, N-benzoyl-4-[5-(trifluoromethyl)-1,2,4-oxadiazol-3-yl]benzohydrazide] | ≥ 80 | ≥ 80 |  |
| 167 to 170 | O=C(NN1CCc2ccccc21)c1ccc(-c2noc(C(F)(F)F)n2)cc1 [Compound 1.10, N-indolin-1-yl-4-[5-(trifluoromethyl)-1,2,4-oxadiazol-3-yl]benzamide] | ≥ 80 | ≥ 80 |  |
| 188 to 190 | O=C(Nn1ccc2ccccc21)c1ccc(-c2noc(C(F)(F)F)n2)cc1 [Compound 1.11, N-indol-1-yl-4-[5-(trifluoromethyl)-1,2,4-oxadiazol-3-yl]benzamide] | ≥ 80 | ≥ 80 |  |
| 205 to 209 | O=C(NN1CCCCC1=O)c1c(F)cc(-c2noc(C(F)(F)F)n2)cc1F [Compound 1.12, 2,6-difluoro-N-(2-oxo-1-piperidyl)-4-[5-(trifluoromethyl)-1,2,4-oxadiazol-3-yl]benzamide] |  | ≥ 80 |  |
| 159 to 162 | Cc1cc(-c2noc(C(F)(F)F)n2)cnc1C(=O)NN1CCCCC1=O [Compound 1.13, 3-methyl-N-(2-oxo-1-piperidyl)-5-[5-(trifluoromethyl)-1,2,4-oxadiazol-3-yl]pyridine-2-carboxamide] |  |  |  |
| 140 to 149 | O=C(NNCCO)c1ccc(-c2noc(C(F)(F)F)n2)cc1 [Compound 1.18, N′-(2-hydroxyethyl)-4-[5-(trifluoromethyl)-1,2,4-oxadiazol-3-yl]benzohydrazide] | ≥ 80 | ≥ 80 | ≥ 80 |
| 146 to 166 | O=C(NN1CCOC1=O)c1ccc(-c2noc(C(F)(F)F)n2)c(F)c1 [Compound 1.25, 3-fluoro-N-(2-oxooxazolidin-3-yl)-4-[5-(trifluorormethyl)-1,2,4-oxadiazol-3-yl]benzamide] | ≥ 80 | ≥ 80 | ≥ 80 |
| 201 to 203 | O=C(Cc1ccc(-c2noc(C(F)(F)F)n2)cc1F)NN1CCOCC1 [Compound 1.28, 2-[2-fluoro-4-[5-(trifluoromethyl)-1,2,4-oxadiazoi-3-yl]phenyl]-N-morpholino-acetamide] |  | ≥ 80 | ≥ 80 |
| 154 to 156 | O=C(Cc1ccc(-c2noc(C(F)(F)F)n2)cc1F)NN1CCCCC1=O [Compound 1.29, 2-[2-fluoro-4-[5-(trifluoromethyl)-1,2,4-oxadiazol-3-yl]phenyl]-N-(2-oxo-1-piperidyl)acetamide] | ≥ 80 | ≥ 80 | ≥ 80 |
| 163 to 165 | CN(C)NC(=O)Cc1ccc(-c2noc(C(F)(F)F)n2)c(F)c1 [Compound 1.30, 2-[3-fluoro-4-[5-(trifluoromethyl)-1,2,4-oxadiazol-3-yl]phenyl]-N′,N′-dimethyl-acetohydrazide] | ≥ 80 | ≥ 80 | ≥ 80 |
| 207 to 209 | O=C(Cc1ccc(-c2noc(C(F)(F)F)n2)c(F)c1)NN1CCOCC1 [Compound 1.31, 2-[3-fluoro-4-[5-(trifluoromethyl)-1,2,4-oxadiazol-3-yl]phenyl]-N-morpholino-acetamide] |  |  | ≥ 80 |
| 161 to 163 | O=C(Cc1ccc(-c2noc(C(F)(F)F)n2)c(F)c1)NN1CCCCC1=O [Compound 1.32, 2-[3-flouro-4-[5-(trifluoromethyl)-1,2,4-oxadiazol-3-yl]phenyl]-N-(2-oxo-1-piperidyl)acetamide] | ≥ 80 | ≥ 80 | ≥ 80 |
